Like-named read-outs stand apart in the source and are kept apart here. One block for each compound: values may come before it.
Tests used:
Test in all cases: biochemical
Parameters in all cases: DiscoveRx KINOMEscan active site-directed competition binding; percent of control kinase bound to immobilised ligand
CAMK2A = CAMK2A (Homo sapiens, UniProt Q9UQM7)
PDPK1 = target: T1, PDPK1 (Homo sapiens, UniProt O15530)
T1 sequence (O15530 1-556): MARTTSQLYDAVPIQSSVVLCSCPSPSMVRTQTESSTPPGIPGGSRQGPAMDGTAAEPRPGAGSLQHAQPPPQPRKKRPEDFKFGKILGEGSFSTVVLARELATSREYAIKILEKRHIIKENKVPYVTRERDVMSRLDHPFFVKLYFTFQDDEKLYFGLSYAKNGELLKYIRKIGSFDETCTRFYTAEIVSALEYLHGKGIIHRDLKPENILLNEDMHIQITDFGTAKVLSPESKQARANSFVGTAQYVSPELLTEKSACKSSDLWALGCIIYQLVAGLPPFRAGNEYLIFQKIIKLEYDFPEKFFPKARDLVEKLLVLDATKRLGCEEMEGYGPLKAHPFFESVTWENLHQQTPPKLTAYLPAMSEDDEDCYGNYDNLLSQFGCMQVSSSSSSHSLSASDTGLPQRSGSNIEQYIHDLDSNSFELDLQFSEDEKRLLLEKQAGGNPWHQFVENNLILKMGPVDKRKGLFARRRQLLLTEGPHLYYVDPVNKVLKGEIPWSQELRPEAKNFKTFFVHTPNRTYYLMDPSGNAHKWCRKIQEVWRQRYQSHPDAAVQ

FLT3-autoinhibited = target: T2, FLT3-autoinhibited (Homo sapiens, UniProt P36888)
T2 sequence (P36888 1-993): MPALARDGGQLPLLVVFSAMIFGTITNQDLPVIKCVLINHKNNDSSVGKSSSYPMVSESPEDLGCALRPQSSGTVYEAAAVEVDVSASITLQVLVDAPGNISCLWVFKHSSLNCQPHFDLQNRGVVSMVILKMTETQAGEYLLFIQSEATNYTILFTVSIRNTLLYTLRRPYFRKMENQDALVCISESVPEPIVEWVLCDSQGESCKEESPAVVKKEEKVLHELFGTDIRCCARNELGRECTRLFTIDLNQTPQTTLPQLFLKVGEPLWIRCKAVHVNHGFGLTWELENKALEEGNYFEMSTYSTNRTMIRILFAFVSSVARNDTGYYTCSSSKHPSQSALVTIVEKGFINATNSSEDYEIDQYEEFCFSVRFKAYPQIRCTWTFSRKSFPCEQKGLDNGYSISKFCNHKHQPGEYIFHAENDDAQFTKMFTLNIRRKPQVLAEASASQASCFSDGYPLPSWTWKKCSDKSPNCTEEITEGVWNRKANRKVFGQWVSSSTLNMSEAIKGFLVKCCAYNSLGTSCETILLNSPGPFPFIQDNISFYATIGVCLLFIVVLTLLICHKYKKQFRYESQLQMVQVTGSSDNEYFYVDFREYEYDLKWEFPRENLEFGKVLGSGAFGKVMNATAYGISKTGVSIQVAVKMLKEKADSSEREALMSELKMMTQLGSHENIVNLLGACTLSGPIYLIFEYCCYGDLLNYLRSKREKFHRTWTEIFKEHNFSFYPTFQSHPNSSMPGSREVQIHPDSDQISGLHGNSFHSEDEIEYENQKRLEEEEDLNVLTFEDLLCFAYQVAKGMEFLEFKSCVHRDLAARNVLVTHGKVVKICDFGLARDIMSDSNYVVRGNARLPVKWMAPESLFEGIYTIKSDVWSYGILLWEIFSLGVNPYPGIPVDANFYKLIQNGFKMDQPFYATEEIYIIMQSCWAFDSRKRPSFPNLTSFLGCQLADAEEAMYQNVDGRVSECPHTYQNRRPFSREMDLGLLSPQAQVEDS

OSR1 = target: T3, OSR1 (Homo sapiens, UniProt O95747)
T3 construct: gene OXSR1
T3 sequence (O95747 whole entry): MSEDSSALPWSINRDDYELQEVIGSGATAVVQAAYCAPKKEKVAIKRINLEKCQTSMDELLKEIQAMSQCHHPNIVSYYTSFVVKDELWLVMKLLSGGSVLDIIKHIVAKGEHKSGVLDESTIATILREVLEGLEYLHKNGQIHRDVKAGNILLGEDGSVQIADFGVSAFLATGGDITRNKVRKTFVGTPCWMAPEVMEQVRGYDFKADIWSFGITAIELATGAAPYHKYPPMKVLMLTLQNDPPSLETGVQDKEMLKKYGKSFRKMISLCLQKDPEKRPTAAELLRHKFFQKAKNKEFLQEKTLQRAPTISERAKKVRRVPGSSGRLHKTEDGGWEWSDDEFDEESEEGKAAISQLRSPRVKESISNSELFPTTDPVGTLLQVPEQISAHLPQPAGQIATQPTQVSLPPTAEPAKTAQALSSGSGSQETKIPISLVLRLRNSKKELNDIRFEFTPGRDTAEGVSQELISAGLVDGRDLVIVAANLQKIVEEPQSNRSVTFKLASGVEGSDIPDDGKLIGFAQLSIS

PRKCI = target: T4, PRKCI (Homo sapiens, UniProt P41743)
T4 sequence (P41743 1-596): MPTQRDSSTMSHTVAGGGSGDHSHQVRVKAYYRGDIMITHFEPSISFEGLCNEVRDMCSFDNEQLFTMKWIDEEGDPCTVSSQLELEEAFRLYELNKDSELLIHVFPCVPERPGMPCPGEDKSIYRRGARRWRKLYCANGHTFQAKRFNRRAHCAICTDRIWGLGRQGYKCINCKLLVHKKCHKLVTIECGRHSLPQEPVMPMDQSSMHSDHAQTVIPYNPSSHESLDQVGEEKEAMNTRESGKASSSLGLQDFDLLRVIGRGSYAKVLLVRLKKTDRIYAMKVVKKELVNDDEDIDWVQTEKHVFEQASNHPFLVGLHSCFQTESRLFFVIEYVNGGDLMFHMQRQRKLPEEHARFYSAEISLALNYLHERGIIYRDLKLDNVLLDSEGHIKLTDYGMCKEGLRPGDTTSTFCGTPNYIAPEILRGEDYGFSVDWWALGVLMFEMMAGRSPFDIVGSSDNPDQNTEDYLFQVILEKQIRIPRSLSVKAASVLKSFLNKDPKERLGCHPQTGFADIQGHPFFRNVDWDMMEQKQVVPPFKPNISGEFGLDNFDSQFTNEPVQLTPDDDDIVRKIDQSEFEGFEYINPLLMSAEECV

CAMKK2 = CAMKK2 (Homo sapiens, UniProt Q96RR4)
CAMKK2, sequence (Q96RR4 whole entry): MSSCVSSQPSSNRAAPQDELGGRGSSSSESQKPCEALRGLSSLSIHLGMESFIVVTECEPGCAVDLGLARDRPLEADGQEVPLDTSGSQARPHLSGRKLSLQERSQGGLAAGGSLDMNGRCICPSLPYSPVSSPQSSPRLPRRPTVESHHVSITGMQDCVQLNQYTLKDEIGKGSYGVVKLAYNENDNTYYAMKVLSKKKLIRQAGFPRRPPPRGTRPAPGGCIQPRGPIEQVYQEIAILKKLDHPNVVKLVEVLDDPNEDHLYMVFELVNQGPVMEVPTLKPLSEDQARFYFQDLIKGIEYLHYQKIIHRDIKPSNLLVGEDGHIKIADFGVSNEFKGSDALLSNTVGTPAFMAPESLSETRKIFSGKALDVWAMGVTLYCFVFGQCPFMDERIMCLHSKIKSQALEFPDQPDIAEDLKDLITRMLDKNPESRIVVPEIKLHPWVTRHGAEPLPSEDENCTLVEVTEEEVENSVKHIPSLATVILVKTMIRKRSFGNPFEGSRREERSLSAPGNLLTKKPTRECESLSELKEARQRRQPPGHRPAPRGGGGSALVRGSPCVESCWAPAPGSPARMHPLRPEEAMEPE

[1] = read-out: Olaparib / %Ctrl @ 10000nM
[2] = read-out: Talazoparib (BMN 673) / %Ctrl @ 10000nM
[3] = read-out: Rucaparib / %Ctrl @ 10000nM, binding competition, % of control
[4] = read-out: Niraparib (MK-4827) / %Ctrl @ 10000nM

CAMK2A, sequence (Q9UQM7 whole entry): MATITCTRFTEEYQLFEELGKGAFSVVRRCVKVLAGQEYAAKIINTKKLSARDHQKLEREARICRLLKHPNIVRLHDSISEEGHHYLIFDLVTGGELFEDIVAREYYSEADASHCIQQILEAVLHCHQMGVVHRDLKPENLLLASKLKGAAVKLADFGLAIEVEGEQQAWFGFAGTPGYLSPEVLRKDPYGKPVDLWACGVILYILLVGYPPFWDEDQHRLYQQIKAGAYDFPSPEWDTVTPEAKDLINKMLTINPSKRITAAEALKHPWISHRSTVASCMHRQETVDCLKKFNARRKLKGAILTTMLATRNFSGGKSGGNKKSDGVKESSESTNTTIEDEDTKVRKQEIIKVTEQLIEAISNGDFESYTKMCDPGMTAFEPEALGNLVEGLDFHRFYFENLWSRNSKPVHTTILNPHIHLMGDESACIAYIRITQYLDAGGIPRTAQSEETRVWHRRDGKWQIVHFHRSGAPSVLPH

percent of control binding at 10 µM (CAMK2A; [1]): 96%
percent of control binding at 10 µM (PDPK1; [1]): 100%
percent of control binding at 10 µM (FLT3-autoinhibited; [1]): 87%
percent of control binding at 10 µM (OSR1; [1]): 88%
percent of control binding at 10 µM (PRKCI; [1]): 100%
percent of control binding at 10 µM (CAMKK2; [1]): 99%
Structure (SMILES): O=C(c1cc(Cc2n[nH]c(=O)c3ccccc23)ccc1F)N1CCN(C(=O)C2CC2)CC1 [Olaparib]

percent of control binding at 10 µM (CAMK2A; [2]): 86%
percent of control binding at 10 µM (PDPK1; [2]): 85%
percent of control binding at 10 µM (FLT3-autoinhibited; [2]): 100%
percent of control binding at 10 µM (OSR1; [2]): 90%
percent of control binding at 10 µM (PRKCI; [2]): 78%
percent of control binding at 10 µM (CAMKK2; [2]): 97%
Structure (SMILES): Cn1ncnc1[C@H]1c2n[nH]c(=O)c3cc(F)cc(c23)N[C@@H]1c1ccc(F)cc1 [Talazoparib]

percent of control binding at 10 µM (CAMK2A; [3]): 79%
percent of control binding at 10 µM (PDPK1; [3]): 97%
Rucaparib / %Ctrl @ 10000nM (FLT3-autoinhibited; binding competition, % of control): 93%
percent of control binding at 10 µM (OSR1; [3]): 71%
percent of control binding at 10 µM (PRKCI; [3]): 72%
percent of control binding at 10 µM (CAMKK2; [3]): 70%
Structure (SMILES): CNCc1ccc(-c2[nH]c3cc(F)cc4c3c2CCNC4=O)cc1 [Rucaparib]

Structure (SMILES): NC(=O)c1cccc2cn(-c3ccc([C@@H]4CCCNC4)cc3)nc12 [Niraparib]
percent of control binding at 10 µM (CAMK2A; [4]): 78%
percent of control binding at 10 µM (PDPK1; [4]): 80%
percent of control binding at 10 µM (FLT3-autoinhibited; [4]): 84%
percent of control binding at 10 µM (OSR1; [4]): 98%
percent of control binding at 10 µM (PRKCI; [4]): 85%
percent of control binding at 10 µM (CAMKK2; [4]): 81%
